# Values quoted from earlier work as cited in patent US20250064896A1, “METHODS, COMPOSITIONS AND USES FOR TREATING CANCER BY PROVIDING MEDICATIONS THAT INDUCE TARGETED TUMOR CELL MITOSIS BEFORE PROVIDING CHEMOTHERAPY OR RADIATION AND KITS THEREFOR” (MAISON AMORI OQVPO LLC, priority 2022, published 2025).
# Read-outs that look alike come from different tables or passages of the source.
# Legend:
# [1] = tested on: metastatic hormone sensitive prostate cancer (MHSPC); settings: for median actuarial freedom from Castrate Resistant Prostate Cancer (CRPC): p=0.04; for overall survival: p=0.2
# testosterone levels [2] = settings: week 2 from initiation of leuprolide; injections once every 3 months; advanced prostate cancer
# [3] = in vivo
# testosterone levels [4] = tested on: testosterone levels
# [5] = tested on: serum concentrations of LH and testosterone
# [6] = patients randomized to bicalutamide versus placebo
# [7] = tested on: locally advanced prostate cancer; settings: goserelin 3.6 mg every 4 weeks and flutamide 250 mg tid, 2 months before and concurrent with RT
# [8] = tested on: locally advanced prostate cancer
# [9] = tested on: locally advanced prostate cancer; settings: for overall survival at 5 years: P=0.73
# [10] = tested on: prostate cancer (salvage setting); settings: goserelin provided on the first day of radiation
# [11] = tested on: metastatic adenocarcinoma of the prostate
# [12] = in vivo; remark: listed apart in the source
# [13] = arm I: irradiation plus goserelin started in the last week of radiation
smiles,measurement,setting,value
CC(=O)O[C@@]12CO[C@@H]1C[C@H](O)[C@@]1(C)C(=O)[C@H](O)C3=C(C)[C@@H](OC(=O)[C@H](O)[C@@H](NC(=O)OC(C)(C)C)c4ccccc4)C[C@@](O)([C@@H](OC(=O)c4ccccc4)[C@H]21)C3(C)C [docetaxel],overall survival versus LHRH therapy alone,"[1]; docetaxel given at the beginning of LHRH therapy, MHSPC",significantly longer
same,median actuarial freedom from Castrate Resistant Prostate Cancer (CRPC),[1]; docetaxel started 1-6 days from LHRH initiation,51 months
same,overall survival,[1]; docetaxel started 1-6 days from initiation of LHRH agonist,72 months
same,median actuarial freedom from Castrate Resistant Prostate Cancer (CRPC),[1]; docetaxel started >14 days from LHRH initiation,18 months
same,overall survival,[1]; docetaxel started >14 days from initiation of LHRH agonist,57 months
CCNC(=O)[C@@H]1CCCN1C(=O)[C@H](CCCNC(=N)N)NC(=O)[C@H](CC(C)C)NC(=O)[C@@H](CC(C)C)NC(=O)[C@H](Cc1ccc(O)cc1)NC(=O)[C@H](CO)NC(=O)[C@H](Cc1c[nH]c2ccccc12)NC(=O)[C@H](Cc1c[nH]cn1)NC(=O)[C@@H]1CCC(=O)N1 [leuprolide],testosterone levels higher compared to baseline,testosterone levels [2],about 50%
same,"leuprolide blood levels, intranasal versus intravenous route",[3],much lower
same,median testosterone levels remained above castrate levels (0.5 ng/ml) until,testosterone levels [4]; after initiation of leuprolide,21 days
same,median testosterone levels increase from baseline,"testosterone levels [4]; by day 3 after initiation of monthly leuprolide, P<0.001",65%
same,median testosterone level,testosterone levels [4]; day 3 after initiation of leuprolide,6.30 ng/mL
same,duration of elevation of testosterone levels,[5]; after LHRH analogue application,7 days
same,duration of increase in relative LH values,[5]; after LHRH analogue injection,7 days
same,maximum testosterone level,[5]; day 2 after LHRH analogue application,145±13%
same,maximum relative LH value,"[5]; day 2 after LHRH analogue injection, means±standard error, 16 patients with advanced prostatic cancer",345±108%
CC(O)(CS(=O)(=O)c1ccc(F)cc1)C(=O)Nc1ccc(C#N)c(C(F)(F)F)c1 (centres unmarked) [bicalutamide],erectile dysfunction compared to placebo,[6],non-statistically significant difference
CC(C)C[C@H](NC(=O)[C@@H](COC(C)(C)C)NC(=O)[C@H](Cc1ccc(O)cc1)NC(=O)[C@H](CO)NC(=O)[C@H](Cc1c[nH]c2ccccc12)NC(=O)[C@H](Cc1cnc[nH]1)NC(=O)[C@@H]1CCC(=O)N1)C(=O)N[C@@H](CCCNC(=N)N)C(=O)N1CCC[C@H]1C(=O)NNC(N)=O [goserelin],"survival, combined ADT with RT versus RT alone",[7],no significant difference
same,10-year overall survival,"[8]; combined treatment, radiotherapy alone 39.8%, p=0.0004",58.1%
same,"survival, hormonal therapy added to radiation compared to radiation alone",[8]; external irradiation plus goserelin,survival benefit
same,five-year overall survival,"[8]; irradiation plus goserelin from first day for 3 years, antiandrogen for 1 month, radiotherapy alone 62%, p=0.0002",78%
same,overall survival at 5 years,[9]; 24 months of goserelin after 4 months of goserelin and flutamide with RT,80.0%
same,overall survival between the two treatment arms,[9]; 24 months of goserelin versus no further treatment,not significantly different
same,overall survival at 5 years,[9]; no further treatment after 4 months of goserelin and flutamide with RT,78.5%
same,10-year absolute survival rate,"prostate cancer; arm 1 versus control arm 39%, p=0.002",49%
same,5-year absolute survival rate,prostate cancer; [13],72%
same,9-year absolute survival rate,prostate cancer; [13],62%
same,"survival, ADT in the salvage setting",[10],survival benefit
C[C@]12CC[C@H]3[C@@H](CCC4=CC(=O)CC[C@@]43C)[C@@H]1CC[C@@H]2O [testosterone],patients with unfavorable subjective and/or objective responses,[11]; 52 patients treated with exogenous testosterone daily,87%
same,"serious morbidity or mortality, seemingly due to the testosterone administration",[11]; eight cases of 52 patients,15%
same,half-life,[12],170 h
